According to US20230293699A1, “USE OF A BORON CLUSTER AS TRANSMEMBRANE CARRIER” (CONSTRUCTOR UNIVERSITY BREMEN GGMBH, priority 2020, published 2023):

How the values were obtained:
[1] = HPTS/DPX vesicle transport assay; assay type: biochemical; details: for transport of positive, zwitterionic and neutral cargo into vesicles: cargo: singly charged, neutral biomolecules, vitamins, antibiotics, neuromuscular blocking agents, proteins; for transport of heptaarginine across the lipid membrane of the vesicles: cargo heptaarginine (H-Trp-Arg7-OH), HPTS fluorescence increase
Text: A: Heptaarginine, B: Heptalysine, C: Protamine, D: Acethylcholine, E: Pancuronium, F: Vecuronium, G: Vitamin B1, H: Ranitidin, I: Tryptophan, J: Ampicilin, K: Phenylalanine, L: Phalloidin, M: Glutamic acid, and N: Bovine albumin. +: positively charged cargos, +/−: zwitterionic cargos, ©: neutral cargo, and −: negatively charged cargos;
A hydrophilic heptaarginine peptide (H-Trp-Arg7-OH) which is unable to spontaneously translocate across neutral phosphocholine lipid vesicles in the absence of counterion activators was used as prototype for cationic cell-penetrating molecular scaffolds (peptides and polymers). The capability of boron clusters to activate the transport of the heptaarginine peptide (H-Trp-Arg7-OH) was investigated first in large unilamellar vesicles (LUVs). The HPTS/DPX assay, that uses 8-hydroxypyrene-1,3,6-trisulfonate and p-xylene-bis-pyridinium, was implemented to monitor peptide-transport activation by the clusters. This assay not only reports on the potential of a synthetic carrier to transport the positively charged peptide into a vesicle, but also to shuttle the cationic quencher DPX to the outside.
Transport can accordingly be monitored, and the activator efficacy quantified, by a time-resolved fluorescence increase at different concentrations of the carrier.
HTPS emission was monitored during the sequential addition of the globular cluster carrier and peptide cargo; a strong detergent (Triton® X-100) was added at the end to affect vesicle lysis and complete dye release that allowed a normalization of the fluorescence intensity data.
This was validated in vesicle transport experiments, which included targets which have not been previously accessible to other non-covalent synthetic carriers or counterion activators. The targets included singly charged, zwitterionic, and neutral biomolecules (such as acetylcholine and amino acids), vitamins, antibiotics, neuromuscular blocking agents and proteins.

Cereblon E3 Ligase = target: T1, Cereblon E3 Ligase (Homo sapiens, UniProt Q96SW2); assay: NanoBRET TE Intracellular E3 Ligase Assay (CRBN target engagement); assay type: cell-based; details: dBET1 in presence vs absence of B1 (0, 25, 50 μM)
T1 construct: expressed in transfected cells
T1 sequence (Q96SW2 whole entry): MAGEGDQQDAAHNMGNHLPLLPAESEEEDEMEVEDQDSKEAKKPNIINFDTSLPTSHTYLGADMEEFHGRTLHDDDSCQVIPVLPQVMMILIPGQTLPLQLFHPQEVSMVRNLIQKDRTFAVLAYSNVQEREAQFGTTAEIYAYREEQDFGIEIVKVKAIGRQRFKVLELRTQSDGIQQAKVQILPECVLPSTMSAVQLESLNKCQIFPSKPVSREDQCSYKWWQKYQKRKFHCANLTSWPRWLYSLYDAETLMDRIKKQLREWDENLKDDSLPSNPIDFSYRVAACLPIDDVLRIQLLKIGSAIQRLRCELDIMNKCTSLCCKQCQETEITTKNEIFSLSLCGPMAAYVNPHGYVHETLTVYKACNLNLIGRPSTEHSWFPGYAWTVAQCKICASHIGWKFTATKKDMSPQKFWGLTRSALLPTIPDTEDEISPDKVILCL
Protocol: Crossbars and error bars indicate mean and standard deviation; values obtained in each experimental value are represented with a different shape;
For dBET1, a PROTAC with known low permeability, it was shown that B1 enhances its activity. The internalization of this PROTAC in the absence and presence of the cluster was assessed by its ability to bind to the Cereblon E3 Ligase by using a NanoBRET™ TE Intracellular E3 Ligase Assay. Enhanced uptake of dBET1 was observed (factor 2-3 decrease in IC50 value).

[2] = test system: Escherichia coli Top10 strain; assay: E. coli Top10 viability with kanamycin A and B1; assay type: cell-based
Protocol: Bar graphs (left) and time course (right) of E. coli Top10 viability in the presence of different concentrations of kanamycin monosulfate (0, 2500, 3000 or 3500 nM) and B1 (0, 500, 750 or 1000 μM) in LB broth at 37° C.; error bars (shown on the right) refer to the standard deviation (n=3; V (%): E. coli Top10 viability, [KA] […]
For kanamycin A, effective passage through the cell membrane into the cytosol is essential to reach its intracellular targets. […] In the absence of the cluster, E. coli retained viability (60%), which disappeared almost completely (<5%) in the presence of the antibiotics carrier (FIG. 5). The enhanced antibiotic activity is attributed to the boron cluster's carrier potential as all other factors were left the same.

mammalian cell = assay: Mammalian cell survival; assay type: cell-based; details: 500 μM
HeLa cells = assay: Tm-Arg8 endosomal escape by confocal fluorescence microscopy; assay type: cell-based
Protocol: Cells were incubated with 1 μM Tm-Arg8 and 0 (left picture) or 10 μM clusters diluted in HKR buffer for 1 hour, washed twice with HKR buffer, and imaged by confocal fluorescence microscopy; Images show TAMRA fluorescence (light gray) and the brightfield in the inset pictures; scale bars: 50 μm;
The potential of boron clusters to trigger the endosomal escape into live cells was first studied for oligocationic peptides as cargo. As a prototype, the octaarginine peptide labelled with carboxytetramethylrhodamine (Tm-Arg8) was selected, which at low concentrations (i.e., 1 μM) enters cells by endocytosis and remains trapped in the intracellular compartments. The cytosolic delivery of Tm-Arg8 was followed by confocal microscopy in the presence and absence of superchaotropic boron clusters (FIG. 4).

[3] = Transport of a bioactive molecule through a membrane by fused, multinuclear and iodinated clusters
Text: Also fused boron clusters and multinuclear boron clusters were successfully used as transporters for a bioactive molecule through a membrane.

Q: With pyrene butyrate [reference compound] as the molecule, how does the “fluorescence response (transport) of zwitterionic or neutral analytes” value ([1]; analytes acetylcholine, tryptophan, ampicillin, vecuronium and phalloidin, comparison activator) read?
A: The value was “None of the selected, zwitterionic or neutral, analytes (acetylcholine, tryptophan, ampicillin, vecuronium and phalloidin) showed any fluorescence response”.

Q: For B12Br12^2−, which “transport of negatively charged cargo into vesicles” value ([1]; cargo glutamate and albumin) is on record?
A: The value was “with the exception of the negatively charged molecules (glutamate and albumin)”.

Q: What about the “transport of positive, zwitterionic and neutral cargo into vesicles” value [1] of the same molecule?
A: The value was “transported all types of cargo (positive and neutral)”.

Q: And the “decrease in IC50 value of dBET1” value (Cereblon E3 Ligase)?
A: The value was 2-3 factor.

Q: What about the E. coli viability ([2]; kanamycin A 3.5 μg/ml in the presence of B1 500 μM) of the same molecule?
A: Its E. coli viability is less than 5%.

Q: And the “compatibility with mammalian cell survival” value (mammalian cell)?
A: Its value is “compatible with mammalian cell survival”.

Q: For `NC[C@H]1O[C@H](O[C@H]2[C@H](O)[C@@H](O[C@H]3O[C@H](CO)[C@@H](O)[C@H](N)[C@H]3O)[C@H](N)C[C@@H]2N)[C@H](O)[C@@H](O)[C@@H]1O` [kanamycin A], which viability at 3.5 µg/mL ([2]; Escherichia coli, TOP10STRAIN, read-out: E. coli viability) is on record?
A: The viability at 3.5 µg/mL was 60%.

Q: And the “antibiotic effectiveness in bacteria” value ([2]; antibiotic transported by boron cluster)?
A: The value was “increased its effectiveness”.

Q: With B12H11NBD^− [B3] as the molecule, how does the “transport of heptaarginine across the lipid membrane of the vesicles” value [1] read?
A: Its value is “efficient transport”.

Q: What about the “Tm-Arg8 peptide endosomal escape (diffuse cytosolic fluorescence)” value (HeLa cells; 1 μM Tm-Arg8, 10 μM cluster, HKR buffer, 1 hour) of the same molecule?
A: Its value is “excellent peptide endosomal escape”.

Q: What about the “peptide and cluster colocalization” value (HeLa cells; fluorescent cluster with Tm-Arg8) of the same molecule?
A: Its value is “significant peptide and cluster colocalization”.

Q: Which “use as transporter / active cluster for a bioactive molecule through a membrane” value (from here on “use as transporter / active cluster”) [3] does the source give for “(8-I-1,2-C2B9H10)-(1′2′-C2B9H11)-3,3′-Co^− [CS4]” here?
A: The value was “successfully used as active clusters”.

Q: For 8,8′-I2-(1,2-C2B9H10)2-3,3′-Co^− [CS6], which “use as transporter / active cluster” value [3] is on record?
A: The value was “successfully used as active clusters”.

Q: For (1,2-C2B9HO2-3,3′-Co^− [CS1], which “use as transporter / active cluster” value [3] is on record?
A: Its value is “successfully used as active clusters”.

Q: For (1,7-C2B9H11)2-2,2′-Co^− [CS2], which “use as transporter / active cluster” value [3] is on record?
A: Its value is “successfully used as active clusters”.

Q: For B10Br10^2− [B4], which “transport of positive, zwitterionic and neutral cargo into vesicles” value [1] is on record?
A: Its value is “same trends were reproduced in transport efficiency”.

Q: With B12Br11—O-n-C3H7^2− [B2] as the molecule, how does the “transport of heptaarginine across the lipid membrane of the vesicles” value [1] read?
A: Its value is “little influence”.
